Source: patent publication US12714688B2, “Margaric acid decreases PIEZ02-mediated pain” (The United States of America, as represented by The …, priority 2020, dated 2026)
Entries after “also recorded” stand apart in the source; their conditions may differ.

Columns and labels:
mice [1] = test: Von Frey test, repeated injury model (daily hind paw injection); type: in vivo, mouse
Method: (§1) Mice behavior: MA solution: MA was prepared in sterile Dulbecco's phosphate buffered saline, with 70 g/L fatty acid free bovine serum albumin (BSA; Sigma), and MA to a final concentration of 5 mM. The solution was filtered to avoid undissolved materials.
(§2) Subjects: For the experiment 8-12 weeks old male and female C57B16/J mice (N=12; control n=6; male=3, female=3) MA (n=6; male=3, female=3) per experiment were used. Mice were housed under a 12 hr light dark cycle and granted access to food and water ad libitum.
Injections were given as follows: Mouse is restrained by their tail, foot, and over shoulders scruff. The compound is delivered using a 3/10 cc insulin syringe into the plantar surface of the back foot of each mouse. The beveled needle is inserted at a 35-40° angle and 20-50 μl of the compound is injected subcutaneously. […]
(§3) Mechanical threshold (Von Frey test): Punctate mechanical allodynia was measured using Von Frey monofilaments (Stoelting, Inc.) in varying grams of force (0.008-1 g). Animals were placed in small enclosures over a wire mesh and the plantar of the hind paw was poked with a filament and responses were recorded. Withdrawal responses were recorded when the animal lifted, shook, or licked the paw in response to stimulus presentation. […]

PIEZO1 = PIEZO1 (Mus musculus, UniProt E2JF22); test: Whole-cell patch-clamp with mechanical indentation of N2A cells expressing endogenous Piezo1; conditions: IC50 of inhibition of PIEZO1 currents, mean±SEM
Method: (§4) Cell culture and electrophysiology: Piezo1 knock-out mouse N2A (N2A^Piezo1−/−) cells were a gift from Dr. Gary R. Lewin, human Merkel cell carcinoma cell line (MCC13 cells; Cell Bank Australia reference number: CBA1338) were obtained from Sigma, and DRG neurons were obtained from sacrificed mice. N2A^Piezo1−/− cells were cultured in Dulbecco's Modified Eagle Medium (DMEM), 5% penicillin streptomycin and 10% fetal bovine serum (FBS); MCC13 cells were cultured in RPMI 1640 (with 2 mM L-glutamine+25 mM HEPES; Sigma), 5% penicillin-streptomycin and 10% FBS and; DRG neurons were cultured in DMEM, 1% penicillin-streptomycin, 1% MEM vitamin solution, 1% L-glutamine, and 10% horse serum. Prior to electrophysiological measurements, N2A^Piezo1−/−, MCC13 and DRG neurons were supplemented overnight (≈18 h) with MA. […] MA was obtained from Nu-Chek Prep, INC. The cultured cells were maintained at 37° C., 95% relative humidity, and 5% CO2.
(§5) For whole-cell recordings, the bath solution contained 140 mM NaCl, 6 mM KCl, 2 mM CaCl2), 1 mM MgCl2, 10 mM glucose, and 10 mM HEPES (pH 7.4; 300 mOsm). […]
(§6) During mechanical stimulation, currents were recorded at a constant voltage (−60 mV, voltage-clamp), and voltages were recorded without injecting current (current-clamp). […]
Data analysis: Results were expressed as means±SD (unless otherwise noted). […]

[2] = test system: mechano-activated currents of mouse DRG neurons; test: Whole-cell patch-clamp of mechano-activated currents in cultured mouse DRG neurons; conditions: 300 μM
Method: as §4
For whole-cell recordings, the bath solution contained 140 mM NaCl, 6 mM KCl, 2 mM CaCl2), 1 mM MgCl2, 10 mM glucose, and 10 mM HEPES (pH 7.4; 300 mOsm). The pipette solution for voltage-clamp recordings contained: 140 mM CsCl, 5 mM EGTA, 1 mM CaCl2), 1 mM MgCl2, and 10 mM HEPES (pH 7.2); and for current clamp recordings: 140 mM KCl, 6 mM NaCl, 2 mM CaCl2), 1 mM MgCl2, 10 mM glucose, and 10 mM HEPES (pH 7.4; 300 mOsm); MA and bradykinin acetate salt (Sigma) perfused during experiments were dissolved in the bath solution to a final concentration of 300 μM for 2 min, and 1 μM for 5 min respectively; and for long exposure experiments bradykinin was supplemented to the culture medium and added to the cells 18-24 h prior recording. […] Pipettes were made out of borosilicate glass (Sutter Instruments) and were fire-polished before use until a resistance between 3 and 5 MΩ was reached.
During mechanical stimulation, currents were recorded at a constant voltage (−60 mV, voltage-clamp), and voltages were recorded without injecting current (current-clamp). Both variables were sampled at 100 kHz and low-pass filtered at 10 kHz using a MultiClamp™ 700 B amplifier and Clampex (Molecular Devices, LLC). […] In both cases, variables were sampled at 20 kHz and low-pass filtered at 10 kHz. Leak currents before mechanical stimulations were subtracted off-line from the current traces and data were digitally filtered at 2 kHz with ClampFit (Molecular Devices, LLC).
The blunt pipette was mounted on a micromanipulator at an ~45° angle and positioned 3-4 μm above from the cells without indenting them. Displacement measurements were obtained with a square-pulse protocol consisting of 1 μm incremental indentation steps, each lasting 200 ms with a 2-ms ramp in 10-s intervals. […]

mouse PIEZO2 [3] = test: Whole-cell patch-clamp with mechanical indentation of N2A^Piezo1−/− cells transfected with Piezo2 variant 2 (V2); conditions: from IC50 values
Method: as §4
(§7) For whole-cell recordings, the bath solution contained 140 mM NaCl, 6 mM KCl, 2 mM CaCl2), 1 mM MgCl2, 10 mM glucose, and 10 mM HEPES (pH 7.4; 300 mOsm). The pipette solution for voltage-clamp recordings contained: 140 mM CsCl, 5 mM EGTA, 1 mM CaCl2), 1 mM MgCl2, and 10 mM HEPES (pH 7.2); and for current clamp recordings: 140 mM KCl, 6 mM NaCl, 2 mM CaCl2), 1 mM MgCl2, 10 mM glucose, and 10 mM HEPES (pH 7.4; 300 mOsm); MA and bradykinin acetate salt (Sigma) perfused during experiments were dissolved in the bath solution to a final concentration of 300 μM for 2 min, and 1 μM for 5 min respectively; and for long exposure experiments bradykinin was supplemented to the culture medium and added to the cells 18-24 h prior recording. For cytoskeleton disruption experiments, N2A^Piezo1−/− were incubated in media supplemented with 1 μM latrunculin A (Cayman Chemicals) for 1 h prior recordings. Pipettes were made out of borosilicate glass (Sutter Instruments) and were fire-polished before use until a resistance between 3 and 5 MΩ was reached.
(§8) During mechanical stimulation, currents were recorded at a constant voltage (−60 mV, voltage-clamp), and voltages were recorded without injecting current (current-clamp). Both variables were sampled at 100 kHz and low-pass filtered at 10 kHz using a MultiClamp™ 700 B amplifier and Clampex (Molecular Devices, LLC). […] Leak currents before mechanical stimulations were subtracted off-line from the current traces and data were digitally filtered at 2 kHz with ClampFit (Molecular Devices, LLC).
(§9) Mechanical stimulation: For indentation assays, N2A^Piezo1−/−, MCC13 DRG neurons, and human iPSC374 derived neurons were mechanically stimulated with a heat-polished blunt glass pipette (3-4 μm) driven by a piezo servo controller (E625, Physik Instrumente). The blunt pipette was mounted on a micromanipulator at an ~45° angle and positioned 3-4 μm above from the cells without indenting them. Displacement measurements were obtained with a square-pulse protocol consisting of 1 μm incremental indentation steps, each lasting 200 ms with a 2-ms ramp in 10-s intervals. The threshold of mechano-activated currents for each experiment was defined as the indentation step that evoked the first current deflection from the baseline.

mouse PIEZO2 [4] = molecular target: mouse PIEZO2 (Mus musculus, UniProt Q8CD54); test: as above; conditions: for IC50: IC50 of inhibition of PIEZO2 currents, mean±SEM
mouse PIEZO2 (Mus musculus, UniProt Q8CD54), sequence (Q8CD54 whole entry): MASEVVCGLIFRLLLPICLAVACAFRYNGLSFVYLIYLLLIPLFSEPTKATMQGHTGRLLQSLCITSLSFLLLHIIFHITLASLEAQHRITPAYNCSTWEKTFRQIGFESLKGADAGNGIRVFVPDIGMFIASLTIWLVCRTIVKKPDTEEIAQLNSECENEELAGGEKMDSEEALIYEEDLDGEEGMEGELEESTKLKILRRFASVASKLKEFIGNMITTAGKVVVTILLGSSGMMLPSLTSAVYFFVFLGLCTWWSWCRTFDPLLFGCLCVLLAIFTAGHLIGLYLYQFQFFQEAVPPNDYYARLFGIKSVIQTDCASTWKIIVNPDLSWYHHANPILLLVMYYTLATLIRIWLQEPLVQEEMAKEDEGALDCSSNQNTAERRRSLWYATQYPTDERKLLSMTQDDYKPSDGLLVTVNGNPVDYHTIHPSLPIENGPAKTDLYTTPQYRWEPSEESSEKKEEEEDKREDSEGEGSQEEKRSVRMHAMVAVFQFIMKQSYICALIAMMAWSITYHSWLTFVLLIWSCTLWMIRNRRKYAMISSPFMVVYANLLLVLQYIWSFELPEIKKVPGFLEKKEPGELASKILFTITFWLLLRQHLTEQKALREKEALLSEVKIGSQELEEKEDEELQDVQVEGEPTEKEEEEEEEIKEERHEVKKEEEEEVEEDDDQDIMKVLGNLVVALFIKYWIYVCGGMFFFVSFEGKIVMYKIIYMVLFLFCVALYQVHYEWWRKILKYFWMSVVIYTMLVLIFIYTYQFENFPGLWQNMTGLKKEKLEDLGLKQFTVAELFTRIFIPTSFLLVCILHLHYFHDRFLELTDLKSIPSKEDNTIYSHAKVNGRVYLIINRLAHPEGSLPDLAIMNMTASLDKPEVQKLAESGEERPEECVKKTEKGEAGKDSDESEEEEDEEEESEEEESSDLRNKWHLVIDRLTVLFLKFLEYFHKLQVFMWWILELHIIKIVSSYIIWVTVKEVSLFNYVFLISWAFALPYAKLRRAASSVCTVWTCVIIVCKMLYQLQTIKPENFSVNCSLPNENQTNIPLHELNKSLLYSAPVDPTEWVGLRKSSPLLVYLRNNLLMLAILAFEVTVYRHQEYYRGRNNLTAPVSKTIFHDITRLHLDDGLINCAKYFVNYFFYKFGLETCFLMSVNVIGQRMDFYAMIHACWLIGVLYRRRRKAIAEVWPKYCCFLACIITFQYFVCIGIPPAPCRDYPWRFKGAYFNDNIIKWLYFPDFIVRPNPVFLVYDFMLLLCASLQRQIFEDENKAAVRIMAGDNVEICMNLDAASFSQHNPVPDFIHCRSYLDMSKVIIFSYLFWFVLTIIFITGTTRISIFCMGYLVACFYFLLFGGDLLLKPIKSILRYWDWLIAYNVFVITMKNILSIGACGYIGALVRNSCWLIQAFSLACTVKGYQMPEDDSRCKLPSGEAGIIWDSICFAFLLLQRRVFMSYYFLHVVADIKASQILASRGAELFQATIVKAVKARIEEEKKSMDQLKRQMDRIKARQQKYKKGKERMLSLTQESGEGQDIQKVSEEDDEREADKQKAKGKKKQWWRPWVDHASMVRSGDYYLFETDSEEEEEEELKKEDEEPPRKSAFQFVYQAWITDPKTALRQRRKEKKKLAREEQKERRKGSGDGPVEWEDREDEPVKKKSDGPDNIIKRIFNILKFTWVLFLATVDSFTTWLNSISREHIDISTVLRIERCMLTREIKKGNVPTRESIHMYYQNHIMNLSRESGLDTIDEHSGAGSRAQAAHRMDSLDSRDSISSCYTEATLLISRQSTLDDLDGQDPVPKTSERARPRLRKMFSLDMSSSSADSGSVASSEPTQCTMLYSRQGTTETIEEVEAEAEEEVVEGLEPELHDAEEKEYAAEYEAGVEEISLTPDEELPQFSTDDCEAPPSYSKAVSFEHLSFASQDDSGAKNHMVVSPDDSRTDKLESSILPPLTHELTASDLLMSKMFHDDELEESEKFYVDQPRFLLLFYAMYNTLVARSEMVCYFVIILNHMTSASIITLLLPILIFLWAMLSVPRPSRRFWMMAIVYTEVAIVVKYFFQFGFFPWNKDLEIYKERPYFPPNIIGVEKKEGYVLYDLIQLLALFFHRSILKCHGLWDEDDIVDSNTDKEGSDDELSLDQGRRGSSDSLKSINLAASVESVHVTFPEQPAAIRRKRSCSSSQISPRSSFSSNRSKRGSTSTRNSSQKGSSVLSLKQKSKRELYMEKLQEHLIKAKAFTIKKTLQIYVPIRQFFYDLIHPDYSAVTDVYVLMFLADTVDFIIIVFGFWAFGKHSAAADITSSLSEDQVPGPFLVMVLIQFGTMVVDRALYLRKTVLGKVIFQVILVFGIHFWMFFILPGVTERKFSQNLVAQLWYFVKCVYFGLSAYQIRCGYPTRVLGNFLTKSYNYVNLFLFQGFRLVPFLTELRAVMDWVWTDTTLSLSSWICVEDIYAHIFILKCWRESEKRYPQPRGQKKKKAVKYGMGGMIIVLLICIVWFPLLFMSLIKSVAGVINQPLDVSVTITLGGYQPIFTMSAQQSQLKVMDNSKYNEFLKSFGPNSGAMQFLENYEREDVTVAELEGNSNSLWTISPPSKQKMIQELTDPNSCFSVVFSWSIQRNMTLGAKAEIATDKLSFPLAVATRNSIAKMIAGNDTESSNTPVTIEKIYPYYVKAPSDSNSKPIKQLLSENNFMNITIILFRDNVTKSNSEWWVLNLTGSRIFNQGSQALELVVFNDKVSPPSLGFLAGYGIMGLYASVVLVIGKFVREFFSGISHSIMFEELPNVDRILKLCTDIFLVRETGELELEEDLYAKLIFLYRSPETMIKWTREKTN
Method: as §4, §7, §8, §9

mice [5] = test: Von Frey test after acute inflammation by topical AITC; type: in vivo, mouse; conditions: MA treatment for 7 days, then AITC
Method: as §1, §2
Treatment: Animals were put in two groups (control and MA) and given injections in the plantar of the left hind paw for 7 days prior behavioral assessment. Injections were given as follows: Mouse is restrained by their tail, foot, and over shoulders scruff. […]
as §3

Piezo2 V16 = test: Whole-cell patch-clamp of N2A^Piezo1−/− cells transfected with Piezo2 V16; conditions: 300 μM; 18 h
Method: as §4, §5, §6

[6] = test system: mechano-activated currents of rat DRG neurons; test: Whole-cell patch-clamp of mechano-activated currents in rat DRG neurons; conditions: 300 μM for 18 h
[7] = molecular target: endogenous PIEZO2 currents in MCC13 (Homo sapiens, UniProt Q9H5I5); test: Whole-cell patch-clamp of mechanically stimulated MCC13 cells; conditions: 300 μM
Method: as §4
(§10) For whole-cell recordings, the bath solution contained 140 mM NaCl, 6 mM KCl, 2 mM CaCl2), 1 mM MgCl2, 10 mM glucose, and 10 mM HEPES (pH 7.4; 300 mOsm). The pipette solution for voltage-clamp recordings contained: 140 mM CsCl, 5 mM EGTA, 1 mM CaCl2), 1 mM MgCl2, and 10 mM HEPES (pH 7.2); and for current clamp recordings: 140 mM KCl, 6 mM NaCl, 2 mM CaCl2), 1 mM MgCl2, 10 mM glucose, and 10 mM HEPES (pH 7.4; 300 mOsm); MA and bradykinin acetate salt (Sigma) perfused during experiments were dissolved in the bath solution to a final concentration of 300 μM for 2 min, and 1 μM for 5 min respectively; and for long exposure experiments bradykinin was supplemented to the culture medium and added to the cells 18-24 h prior recording. For cytoskeleton disruption experiments, N2A^Piezo1−/− were incubated in media supplemented with 1 μM latrunculin A (Cayman Chemicals) for 1 h prior recordings. […]
as §6

mouse DRG neurons [8] = test: Current-clamp recording of action potentials elicited by mechanical stimuli in mouse DRG neurons; type: cell-based
Source text: Subsequent sweeps had increments of 1 μm.

[9] = test system: mechano-activated currents of DRG neurons; test: Bradykinin sensitization of mechano-activated currents in mouse DRG neurons; type: cell-based
mouse DRG neurons [10] = test: Electrical excitability of mouse DRG neurons (voltage-gated currents, membrane potential, current injection); type: cell-based
[11] = test system: PIEZO2-PIEZO1 beam chimera; test: Whole-cell patch-clamp of N2A^Piezo1−/− cells transfected with Piezo2-Piezo1 beam chimera
Method: as §4, §10, §6

Structure (SMILES): CCCCCCCCCCCCCCCCC(=O)O [MA, heptadecanoic acid]
- hypersensitivity to punctate touch (tactile allodynia) (mice [1]; MA 5 mM injected daily into hind paw for 7 days): ameliorates hypersensitivity to touch after injury; also recorded: selectively decreases tactile allodynia; also recorded: protects against tactile allodynia; also recorded: do not develop; also recorded: failed to develop this type of heightened withdrawal response
- baseline touch responses (mice [1]; acute sub-dermal injection): had no effect on baseline touch responses
- IC50 (PIEZO1; MA 1-300 μM 18 h): 28.3 ± 3.4 µM
- IC50 (PIEZO1; latrunculin A-treated cells, MA 1-300 μM 18 h plus latrunculin A): 25.6 µM
- effect on displacement threshold [2]: increasing the displacement threshold
- effect on mechano-evoked currents ([2]; rapidly, intermediate and slowly inactivating currents): inhibit all mechanosensitive currents; also recorded: decreases mechano-activated currents; also recorded: decreased the current magnitude of all DRG neurons mechano-evoked currents
- times more MA needed to inhibit PIEZO2 than PIEZO1 (mouse PIEZO2 [3]): ~ 7 times
- effect on PIEZO2 inactivation (mouse PIEZO2 [4]; 50 μM each day for 4 days): without altering PIEZO2 inactivation
- effect on displacement threshold (mouse PIEZO2 [4]; 50 μM each day for 4 days): increases the displacement threshold
- decrease of PIEZO2 currents (mouse PIEZO2 [4]; 50 μM each day over four days): 65%
- effect on PIEZO2 currents (mouse PIEZO2 [4]; 1-600 μM overnight): inhibits heterologously-expressed mouse PIEZO2 currents; also recorded: inhibits PIEZO2 currents in a concentration-dependent manner
- IC50 (mouse PIEZO2 [4]; MA 1-600 μM overnight (18 h), normalized current densities at maximum displacement, Boltzmann fit): 191 ± 14.7 µM
- IC50 (mouse PIEZO2 [4]; latrunculin A-treated cells, MA 1-600 μM 18 h plus latrunculin A 1 μM for 1 h): 75.4 ± 13.3 µM
- MA concentration required to decrease PIEZO2 currents (mouse PIEZO2 [4]; overnight supplementation): higher than 100 μM
- effect on time constant of inactivation (mouse PIEZO2 [4]; overnight supplementation): without affecting the time constant of inactivation
- increase of displacement threshold required to elicit PIEZO2 currents vs control cells (mouse PIEZO2 [4]; overnight supplementation): three fold
- responses to von Frey filaments after topical AITC (mice [5]): does not increase hyper-responsivity to punctate stimuli; also recorded: responded with sensitivities similar to their basal response
- effect on activity of Piezo2 V16 (Piezo2 V16): inhibited the activity
- effect on mechano-activated currents [6]: decreases mechano-activated currents in rat DRG neurons; also recorded: inhibit all mechanosensitive currents
- effect on displacement threshold [7]: increasing the displacement threshold
- effect on mechano-activated (endogenous PIEZO2) currents [7]: decreases mechano-activated currents; also recorded: decreases endogenous PIEZO2 currents
- action potential firing elicited by mechanical stimuli (mouse DRG neurons [8]; 300 μM): reduces neuronal action potential firing elicited by mechanical stimuli; also recorded: decreases action potentials elicited by mechanical stimuli; also recorded: specifically decrease action potential firing evoked by mechanical stimulation
- indentation steps eliciting action potentials (mouse DRG neurons [8]; 300 μM, control 7-12 μm): 12 μm
- action potential generation (mouse DRG neurons [8]; 300 μM, indentation steps smaller than 12 μm): completely inhibits action potential generation
- mechanical threshold required to fire action potentials (mouse DRG neurons [8]; MA supplementation): increases the mechanical threshold required for DRG neurons to fire action potentials
- action potentials evoked by 1 Hz mechanical stimulus trains (mouse DRG neurons [8]; MA-enriched neurons vs control): evoked less action potentials than the control
- current density after bradykinin administration ([9]; MA 300 μM 18 h, bradykinin 1 μM perfusion, 10 μm displacement, mean±SD, control 3.36±1.68): 3.64±1.96 pA/pF
- mechano-currents after sensitization with bradykinin ([9]; MA 300 μM 18 h, acute bradykinin 1 μM): decreases the mechano-currents, even after sensitization with bradykinin
- current densities after combined overnight incubation with bradykinin ([9]; bradykinin 1 μM and MA 300 μM, 18 h both): restored the current densities to those of control neurons
- electrical excitability (mouse DRG neurons [10]; 300 μM): does not alter mouse DRG neurons electrical excitability; also recorded: does not alter DRG neuronal electrical excitability
- action potential firing elicited by current injection (mouse DRG neurons [10]; 300 μM vs control): no difference in action potential firing elicited by current injection
- amplitudes of voltage-activated inward Na+ and outward K+ currents (mouse DRG neurons [10]; 300 μM vs control): no significant differences
- membrane potential (mouse DRG neurons [10]; 300 μM, whole-cell configuration): did not alter membrane potential
- sensitivity of chimera to MA inhibition ([11]; 100 μM overnight, compared with PIEZO2): much more sensitive to MA inhibition
- mechanical stimulus needed to open chimera ([11]; MA 100 μM overnight): requires a higher mechanical stimulus to open
